Test results as given in patent publication US20250248980A1, “IMMUNE MODULATORY AGENTS” (PRESIDENT AND FELLOWS OF HARVARD COLLEGE, priority 2022, published 2025).
Entries after “also recorded” stand apart in the source; their conditions may differ. Where two headings read alike, the source gives them in different places.

Legend:
Format in all cases: cell-based
[1] = system: IL17A-dependent gene expression in mouse keratinocytes; test: IL17A-dependent gene expression in mouse keratinocytes (RT-qPCR, secondary assay, FIG. 11); conditions: 10 μM compound, 5 ng/ml IL17A, 24 hours
Method: Mouse keratinocytes were cultured and stimulated with 5 ng/ml IL17A for 24 hours. During the treatment, 10 μM of each compound was added, and reverse transcription-quantitative polymerase chain reaction (RT-qPCR) was used for the gene expression level analyses of the following genes: cxcl1, cxcl2, cxcl5, 24p3, zc3h12a, S100a8, and S100a9. The top-down order of the treatment conditions indicated in the legend correspond to the left-right order of the bars for each gene. […] Compounds C770-0711 (2), C770-0720 (3), 60546479 (6), C881-0413 (9), and LAS 51593897 (11) are also of interest (see grey boxes).

[2] = biological target: T1, IL-17 receptor (the IL-17RA-IL-17RC heterodimer) (Mus musculus, UniProt Q60943+Q8K4C2, F156E); test: IL-17A-receptor (IL-17RA/IL-17RC) GFP reporter cell screen; conditions: for IC50 / Emax: reducing IL-17A-receptor reporter activities; for IC50: GFP percentage by microscope, 48 hours; for Emax: maximal effect at high compound concentrations; for specificity for IL-17A-receptor reporter over other cytokine receptor reporters: in words
T1 sequence (Q60943 32-358): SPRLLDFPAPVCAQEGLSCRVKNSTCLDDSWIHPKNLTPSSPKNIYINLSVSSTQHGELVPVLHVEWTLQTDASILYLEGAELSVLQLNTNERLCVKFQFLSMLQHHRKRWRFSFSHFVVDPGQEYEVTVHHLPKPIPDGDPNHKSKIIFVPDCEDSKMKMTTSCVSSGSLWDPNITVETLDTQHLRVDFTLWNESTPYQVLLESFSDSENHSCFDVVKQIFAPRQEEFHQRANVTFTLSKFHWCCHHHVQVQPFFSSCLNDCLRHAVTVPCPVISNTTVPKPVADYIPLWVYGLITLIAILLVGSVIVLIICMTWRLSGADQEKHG
T1 sequence (Q8K4C2 22-500 F156E): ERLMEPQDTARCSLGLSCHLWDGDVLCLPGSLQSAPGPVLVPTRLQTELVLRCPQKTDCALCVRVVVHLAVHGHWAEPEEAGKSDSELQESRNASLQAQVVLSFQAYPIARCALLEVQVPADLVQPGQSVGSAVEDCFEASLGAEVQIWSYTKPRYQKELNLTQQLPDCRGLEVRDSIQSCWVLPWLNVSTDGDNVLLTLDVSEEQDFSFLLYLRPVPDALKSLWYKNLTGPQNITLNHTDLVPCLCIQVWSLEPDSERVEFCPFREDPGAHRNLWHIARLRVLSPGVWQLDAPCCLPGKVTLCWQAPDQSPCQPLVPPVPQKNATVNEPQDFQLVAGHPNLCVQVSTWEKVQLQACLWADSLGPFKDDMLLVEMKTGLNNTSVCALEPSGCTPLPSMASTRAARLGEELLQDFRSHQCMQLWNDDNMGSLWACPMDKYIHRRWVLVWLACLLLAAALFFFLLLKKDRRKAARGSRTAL
T1 sequence (Q62386 26-158 partner): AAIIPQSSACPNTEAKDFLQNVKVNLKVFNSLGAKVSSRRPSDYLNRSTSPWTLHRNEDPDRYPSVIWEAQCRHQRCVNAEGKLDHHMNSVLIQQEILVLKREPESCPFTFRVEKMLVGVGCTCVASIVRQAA
Method: (§1) FIG. 5 is a dot plot showing the identification of small-molecule compounds that reduce IL-17A or TNF-a receptor activities. Small-molecule screens were performed with 114,665 compounds. Individual compounds were added to IL-17A-reporters or TNF-a-reporters following the addition of respective ligands such as IL-17A or TNF-a (25 ng/ml). The reporter cells were then incubated for additional 48 hours before subjecting them for microscopic analyses (GFP percentage was measured by microscope). Anti-IL17A and anti-TNFa antibodies were used as the positive controls.
To identify small molecule compounds that control IL-17R activity, a screening platform was used to monitor IL-17a binding to its receptor. Upon IL-17a binding to its receptor subunit A (IL-17RA), another receptor subunit IL-17RC is recruited, and these two subunits form a heterodimer. In the exemplary reporter system, a transcription factor (tTA) was tethered, via a protease cleavage site, to IL-17RA. In addition, a tobacco etch virus (TEV) protease was fused to the receptor subunit IL-17RC. Upon the IL-17a-dependent recruitment of IL-17RC-TEV to IL-17RA-tTA, the tTA is cleaved off from its membrane anchor IL-17RA. The released tTA then enters the nucleus and activates the reporter gene (e.g., in this case, GFP). The IL-17RA/RC reporter system responds highly selectively to IL-17a, but not to other related IL-17 family cytokines (except IL-17f).
(§2) Two thousand reporter cells per well (384-well plates) were seeded in 30 ul cell culture medium with either IL-17A (25 ng/ml, unless otherwise indicated) or TNFa ligand (25 ng/ml, unless otherwise indicated); additional screens were performed with IL-17A at 7.5 ng/ml. Then 100 nl of the individual compound was added by a pin transfer and cultured for two days in a CO2 incubator. For the cell viability test, 10 ul HOECHST 33342 was added and incubated for 10 min, followed by the addition of 10 ul 4% PFA. After a 10 min incubation, the reporter cells were washed twice with phosphate-buffered saline (PBS) and kept in 30 ul PBS. The images were acquired and analyzed using an IMAGEXPRESS confocal microscope. For storage, plates were sealed with black light-absorbing films.

[3] = biological target: T2, TNF-a receptor (TNF-R1 reporter cells) (Homo sapiens, UniProt P19438); test: TNF-a-receptor GFP reporter cell screen; conditions: reducing TNF-a-receptor reporter activities; for IC50: GFP percentage by microscope, 48 hours; for Emax: maximal effect at high compound concentrations
T2 construct: expressed in transfected cells; development described in WO2022125865A2
Method: as §1
The IL-17RA/IL-17RC reporter system was used to identify the IL-17a-specific immune modulatory agents, as described herein (see e.g., compounds (1)-(16)). Furthermore, the IL-17A systems and methods were applied to generate other cytokine/cytokine receptor reporter system (tTA fused onto one receptor subunit via a protease cleavage site, TEV fused to another receptor subunit, optimal linkers inserted between different proteins to ensure high signal-to-background ratio; e.g., for identifying TNF-α-specific immune modulatory agents). The screening platform provided herein was used to identify immune modulatory agents including, but not limited to, small molecules and proteins that modulate IL-17A or TNF-α cytokine signaling.
as §2

SMILES	IC50 [3]	Emax [3]	also measured
CCN1CCOc2ccccc2CCCC2(CN(C(=O)c3cc(-c4ccccc4F)no3)CCO2)C1=O (racemic) [Compound 11]	–	–	effect on IL17A-dependent gene expression [1]: robust inhibitory effects
CCc1ccc(S(=O)(=O)c2c(C(=O)c3ccccc3)cnc3ccc(CC)cc23)cc1 [Compound 1]	–	–	IC50 [2]: 4810 nM; Emax [2]: 78%
CCOc1ccc(S(=O)(=O)c2c(C(=O)c3ccc(C)c(C)c3)cnc3ccccc23)cc1 [Compound 2]	–	–	IC50 [2]: 31400 nM; Emax [2]: 82%; effect on IL17A-dependent gene expression [1]: inhibitory activities
CCOc1ccc(S(=O)(=O)c2c(C(=O)c3ccc(CC)cc3)cnc3ccc(C)cc23)cc1 [Compound 3]	–	–	IC50 [2]: 12200 nM; Emax [2]: 44%; effect on IL17A-dependent gene expression [1]: inhibitory activities
CCc1ccc(S(=O)(=O)c2c(C(=O)c3ccc(C)c(C)c3)cnc3ccccc23)cc1 [Compound 5]	–	–	IC50 [2]: 6820 nM; Emax [2]: 57%
O=C(Nc1ccc(Cl)cc1Cl)c1cc(S(=O)(=O)N2CCCCCC2)ccc1F [Compound 7]	–	–	IC50 [2]: 15000 nM; Emax [2]: 57%
CCOC(=O)c1ccc(NC(=O)CCc2c(C)nc3c(c(C)nn3C)c2C)cc1 [Compound 8]	–	–	specificity for IL-17A-receptor reporter over other cytokine receptor reporters [2]: reduce IL-17A-, not TNF-a-, receptor reporter activities; Emax ([2]; read-out: Emax): 94%; effect on IL17A-dependent gene expression [1]: inhibitory activities; also recorded: robust inhibitory effects
Cc1ccc(NC(=O)Cn2cc3c(n2)CCCC3)cc1Cl [Compound 9]	–	–	specificity for IL-17A-receptor reporter over other cytokine receptor reporters [2]: reduce IL-17A-, not TNF-a-, receptor reporter activities; Emax ([2]; read-out: Emax): 67%; effect on IL17A-dependent gene expression [1]: inhibitory activities; also recorded: robust inhibitory effects
COc1cccc(CNC(=O)CSC2=Nc3ccccc3N=C(c3ccc(F)cc3)C2)c1 [Compound 12]	6300 nM	32%	–
COCCn1ccnc1CN(CCO)CCCOc1ccc(Cl)cc1Cl [Compound 13]	1950 nM	42%	–
CCc1ccccc1NC(=O)CN1C(=O)COc2ccc(S(=O)(=O)Nc3ccccc3)cc21 [Compound 16]	1580 nM	75%	–
CN(Cc1ccc2nonc2c1)C(=O)C(c1ccc(F)cc1)N1CCCCC1 (centres unmarked) [Compound 17]	1460 nM	66%	–
O=C(CSC1=Nc2ccccc2N=C(c2ccc(F)cc2)C1)NCc1ccc(F)cc1 [Compound 23]	5300 nM	76%	–
COc1cccc(-c2nn(-c3ccccc3)cc2CN2CCC(NC(C)=O)C2)c1 (centres unmarked) [Compound 24]	610 nM	75%	–
O=C(NCCNC(=O)C(c1ccc(F)cc1)N1CCCCC1)c1ccccc1Cl (centres unmarked) [Compound 25]	1670 nM	52%	–
CC(C)CN1CCc2[nH]cnc2C12CCN(C(=O)c1cccc(F)c1)CC2 [Compound 27]	2160 nM	66%	–
Cc1ccc(Cn2c(CNS(=O)(=O)c3ccc(Cl)s3)nc3cccnc32)cc1 [Compound 34]	860 nM	64%	–

SMILES	IC50 [3]	Emax [3]	also measured
COc1cc(NC(=O)C(Cc2ccccc2)NS(=O)(=O)c2cccs2)cc(OC)c1 (centres unmarked) [Compound 35]	2560 nM	97%	–
CCOC(=O)c1ccccc1NC(=O)N1CCCN(S(=O)(=O)c2ccc3c(ccn3CC)c2)CC1 [Compound 36]	7720 nM	92%	–
COc1ccc(NC(=O)C(NS(=O)(=O)c2cccc3nsnc23)c2ccccc2)cc1 (centres unmarked) [Compound 38]	3990 nM	91%	–
O=C(NC1(CN2CCOCC2)CCCCC1)c1ccccc1N1CCOCC1 [Compound 40]	2160 nM	76%	–
CS(=O)(=O)c1ccc(C2(C(=O)N3CCSCC3)CCCCC2)cc1 [Compound 41]	5890 nM	98%	–
Cc1ccc(Cn2c(CNS(=O)(=O)c3ccc(F)c(Cl)c3)nc3cccnc32)cc1 [Compound 45]	1300 nM	67%	–
O=C(NCc1cccc(Cl)c1)C1(Cc2cscn2)CC2CCC1N2 (centres unmarked) [Compound 48]	3620 nM	68%	–
COc1cc(CN2CCCC(CNC(=O)COc3ccccc3OC)C2)ccc1F (centres unmarked) [Compound 49]	791 nM	87%	–
Oc1cccc(CN2CCCC(NCc3cc(-c4ccccc4)no3)C2)c1 (centres unmarked) [Compound 51]	823 nM	85%	–
CCCN(C/C=C/c1ccccc1)C(=O)CCc1cc2n(n1)CCCNC2 [Compound 52]	8450 nM	90%	–
CC(C)Oc1ccccc1-c1cccc(C(=O)NCCc2nncn2C)c1 [Compound 57]	2340 nM	47%	–
COc1ccc(NC(=O)CSc2nc3ccccc3n2CC(=O)N(C)C2CCCCC2)cc1 [Compound 60]	6980 nM	88%	–
CC(C)C1N=C2c3ccccc3N=C(SCC(=O)NCc3ccc(F)cc3)N2C1=O (centres unmarked) [Compound 61]	8780 nM	88%	–
O=c1n(Cc2cccc3ccccc23)nc(C2CCCNC2)n1-c1ccccc1 (centres unmarked) [Compound 62]	1820 nM	60%	–
CC(C)(CO)CNC1CC(C)(C)Cc2c1cnn2-c1cccc(F)c1 (centres unmarked) [Compound 63]	1780 nM	65%	–
COc1cc(C(=O)NCCc2csc3nc(-c4ccccc4C)nn23)cc(OC)c1OC [Compound 64]	4850 nM	93%	–
O=C(c1ccccc1OC(F)(F)C(F)F)N1CCNC(=O)C12CCCC2 [Compound 76]	1360 nM	64%	–
